Experimental data published in ChEMBL document CHEMBL3822405, “Binding mode prediction of aplysiatoxin, a potent agonist of protein kinase C, through molecular simulation and structure-activity study on simplified analogs of the receptor-recognition domain” (Bioorg Med Chem, 2016).

Biological target: Protein kinase C delta type (Mus musculus, UniProt P28867)
Test: Inhibition of [3H]PDBu binding to PKCdelta C1B domain in CD-1 mouse brain cytosol incubated for 30 mins

Protein kinase C delta type, sequence (P28867 whole entry, the tested form may be a part): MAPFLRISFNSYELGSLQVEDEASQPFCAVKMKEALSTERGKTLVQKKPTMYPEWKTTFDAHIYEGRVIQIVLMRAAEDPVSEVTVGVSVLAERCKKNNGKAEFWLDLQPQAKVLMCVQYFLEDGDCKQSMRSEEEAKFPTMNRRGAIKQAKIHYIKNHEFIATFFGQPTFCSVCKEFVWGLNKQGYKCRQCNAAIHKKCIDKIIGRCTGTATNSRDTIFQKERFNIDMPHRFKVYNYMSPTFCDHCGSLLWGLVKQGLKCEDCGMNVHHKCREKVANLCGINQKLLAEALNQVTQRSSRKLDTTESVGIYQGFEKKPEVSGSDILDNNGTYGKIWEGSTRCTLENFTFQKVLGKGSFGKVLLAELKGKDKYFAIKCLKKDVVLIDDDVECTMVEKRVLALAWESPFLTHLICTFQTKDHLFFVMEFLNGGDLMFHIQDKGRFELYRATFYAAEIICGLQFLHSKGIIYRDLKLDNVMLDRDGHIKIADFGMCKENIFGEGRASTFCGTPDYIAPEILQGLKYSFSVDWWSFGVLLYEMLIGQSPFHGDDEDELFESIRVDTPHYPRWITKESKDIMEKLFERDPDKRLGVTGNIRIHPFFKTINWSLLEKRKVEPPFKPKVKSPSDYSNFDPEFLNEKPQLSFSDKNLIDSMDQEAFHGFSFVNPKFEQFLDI

CCCCCCCCOC(=O)C[C@@H](OCCCCCCCC)[C@@H](C)O showed a Ki of 2900 nM.
CCCCCCCCC[C@@H](OC(=O)CCCCCCC)[C@@H](C)O showed a Ki of over 20000 nM.
Work on CCCCCCCCOC(=O)C[C@@H](OC(=O)CCCCCCC)[C@@H](C)O yielded a Ki of 370 nM.
